According to US7531623B2, “Hydrochloride salts of a glycopeptide phosphonate derivative” (Theravance, Inc., priority 2003, dated 2009):

Experiment: Stability of hydrochloride salts of telavancin on storage (HPLC area % of pseudoaglycone and aglycone impurities)
Assay type: physicochemical
Conditions: for Aglycone of Cmpd 1 (HPLC area %) Initial / Pseudoaglycone of Cmpd 1 (HPLC area %) Initial: before storage at 25° C.; for Aglycone of Cmpd 1 (HPLC area %) 2 Week / Pseudoaglycone of Cmpd 1 (HPLC area %) 2 Week: stored at 25° C. for 2 weeks, glass vials; for Aglycone of Cmpd 1 (HPLC area %) 2-Week Change / Pseudoaglycone of Cmpd 1 (HPLC area %) 2-Week Change: stored at 25° C., difference between 2-week and initial value
Description: In the examples described below, HPLC sample analysis was conducted using an Agilent (Palo Alto, Calif.) Series 1100 instrument with Zorbax RP-Bonus 4.6 mm×250 mm columns, supplied by Agilent, having a 5 micron pore size, packed on C14 silica. Detection was by UV absorbance at 254 nm. Mobile phase A was 2%-98%-0.1% ACN-H2O-TFA; and mobile phase B was 90%-10%-0.1% ACN-H2O-TFA. A flow rate of 1.0 mL/min was used with moble phase A containing a gradient of mobile phase B as follows: 10 to 43% B for 30 min;, 43% B for 5 min; 43 to 100% B for 5 min; 100 to 10% B for 1 min; and 10% B for 14 min.
The effect of chloride ion content on the stability of hydrochloride salts of telavancin stored at −20° C., 5° C. and 25° C. was determined.
Eight lots of telavancin hydrochloride salts prepared as described in Example 2 were placed in identical glass vials and stored at −20° C., 5° C. and 25° C. under otherwise identical conditions for two weeks. The changes in HPLC area % for the pseudoaglycone and aglycone impurities were used to evaluate relative stability.
For each sample, the pH of the mixture from which it was isolated, is indicated. The column entitled, “2 Week Change” is the difference in HPLC area % between the value observed after two weeks and the initial value and is graphically illustrated in FIGS. 1 and 2.

| SMILES | Aglycone of Cmpd 1 (HPLC area %) Initial [HPLC area %] | Pseudoaglycone of Cmpd 1 (HPLC area %) Initial [HPLC area %] | Aglycone of Cmpd 1 (HPLC area %) 2 Week [HPLC area %] | Pseudoaglycone of Cmpd 1 (HPLC area %) 2 Week [HPLC area %] | Aglycone of Cmpd 1 (HPLC area %) 2-Week Change | Pseudoaglycone of Cmpd 1 (HPLC area %) 2-Week Change |
| --- | --- | --- | --- | --- | --- | --- |
| CCCCCCCCCCNCCN[C@@]1(C)C[C@H](O[C@H]2[C@H](Oc3c4cc5cc3Oc3ccc(cc3Cl)[C@@H](O)[C@@H](NC(=O)[C@@H](CC(C)C)NC)C(=O)N[C@@H](CC(N)=O)C(=O)N[C@H]5C(=O)N[C@H]3C(=O)N[C@H](C(=O)N[C@H](C(=O)O)c5cc(O)c(CNCP(=O)(O)O)c(O)c5-c5cc3ccc5O)[C@H](O)c3ccc(c(Cl)c3)O4)O[C@H](CO)[C@@H](O)[C@@H]2O)O[C@@H](C)[C@H]1O [2.42, telavancin] | 0.03 | 0.32 | 0.05 | 0.40 | +0.02 HPLC area % | +0.08 HPLC area % |
| CCCCCCCCCCNCCN[C@@]1(C)C[C@H](O[C@H]2[C@H](Oc3c4cc5cc3Oc3ccc(cc3Cl)[C@@H](O)[C@@H](NC(=O)[C@@H](CC(C)C)NC)C(=O)N[C@@H](CC(N)=O)C(=O)N[C@H]5C(=O)N[C@H]3C(=O)N[C@H](C(=O)N[C@H](C(=O)O)c5cc(O)c(CNCP(=O)(O)O)c(O)c5-c5cc3ccc5O)[C@H](O)c3ccc(c(Cl)c3)O4)O[C@H](CO)[C@@H](O)[C@@H]2O)O[C@@H](C)[C@H]1O [3.68, telavancin] | 0.06 | 0.43 | 0.08 | 0.51 | +0.02 HPLC area % | +0.08 HPLC area % |
| CCCCCCCCCCNCCN[C@@]1(C)C[C@H](O[C@H]2[C@H](Oc3c4cc5cc3Oc3ccc(cc3Cl)[C@@H](O)[C@@H](NC(=O)[C@@H](CC(C)C)NC)C(=O)N[C@@H](CC(N)=O)C(=O)N[C@H]5C(=O)N[C@H]3C(=O)N[C@H](C(=O)N[C@H](C(=O)O)c5cc(O)c(CNCP(=O)(O)O)c(O)c5-c5cc3ccc5O)[C@H](O)c3ccc(c(Cl)c3)O4)O[C@H](CO)[C@@H](O)[C@@H]2O)O[C@@H](C)[C@H]1O [3.94, telavancin] | 0.04 | 0.43 | 0.09 | 0.56 | +0.05 HPLC area % | +0.13 HPLC area % |
| CCCCCCCCCCNCCN[C@@]1(C)C[C@H](O[C@H]2[C@H](Oc3c4cc5cc3Oc3ccc(cc3Cl)[C@@H](O)[C@@H](NC(=O)[C@@H](CC(C)C)NC)C(=O)N[C@@H](CC(N)=O)C(=O)N[C@H]5C(=O)N[C@H]3C(=O)N[C@H](C(=O)N[C@H](C(=O)O)c5cc(O)c(CNCP(=O)(O)O)c(O)c5-c5cc3ccc5O)[C@H](O)c3ccc(c(Cl)c3)O4)O[C@H](CO)[C@@H](O)[C@@H]2O)O[C@@H](C)[C@H]1O [4.41, telavancin] | 0.06 | 0.42 | – | 0.53 | – | +0.11 HPLC area % |
| CCCCCCCCCCNCCN[C@@]1(C)C[C@H](O[C@H]2[C@H](Oc3c4cc5cc3Oc3ccc(cc3Cl)[C@@H](O)[C@@H](NC(=O)[C@@H](CC(C)C)NC)C(=O)N[C@@H](CC(N)=O)C(=O)N[C@H]5C(=O)N[C@H]3C(=O)N[C@H](C(=O)N[C@H](C(=O)O)c5cc(O)c(CNCP(=O)(O)O)c(O)c5-c5cc3ccc5O)[C@H](O)c3ccc(c(Cl)c3)O4)O[C@H](CO)[C@@H](O)[C@@H]2O)O[C@@H](C)[C@H]1O [4.59, telavancin] | 0.10 | 0.52 | 0.17 | 0.72 | +0.07 HPLC area % | +0.20 HPLC area % |
| CCCCCCCCCCNCCN[C@@]1(C)C[C@H](O[C@H]2[C@H](Oc3c4cc5cc3Oc3ccc(cc3Cl)[C@@H](O)[C@@H](NC(=O)[C@@H](CC(C)C)NC)C(=O)N[C@@H](CC(N)=O)C(=O)N[C@H]5C(=O)N[C@H]3C(=O)N[C@H](C(=O)N[C@H](C(=O)O)c5cc(O)c(CNCP(=O)(O)O)c(O)c5-c5cc3ccc5O)[C@H](O)c3ccc(c(Cl)c3)O4)O[C@H](CO)[C@@H](O)[C@@H]2O)O[C@@H](C)[C@H]1O [4.69, telavancin] | 0.07 | 0.45 | 0.13 | 0.62 | +0.06 HPLC area % | +0.17 HPLC area % |
| CCCCCCCCCCNCCN[C@@]1(C)C[C@H](O[C@H]2[C@H](Oc3c4cc5cc3Oc3ccc(cc3Cl)[C@@H](O)[C@@H](NC(=O)[C@@H](CC(C)C)NC)C(=O)N[C@@H](CC(N)=O)C(=O)N[C@H]5C(=O)N[C@H]3C(=O)N[C@H](C(=O)N[C@H](C(=O)O)c5cc(O)c(CNCP(=O)(O)O)c(O)c5-c5cc3ccc5O)[C@H](O)c3ccc(c(Cl)c3)O4)O[C@H](CO)[C@@H](O)[C@@H]2O)O[C@@H](C)[C@H]1O [5.60, telavancin] | 0.15 | 0.48 | 0.41 | 1.11 | – | – |
| CCCCCCCCCCNCCN[C@@]1(C)C[C@H](O[C@H]2[C@H](Oc3c4cc5cc3Oc3ccc(cc3Cl)[C@@H](O)[C@@H](NC(=O)[C@@H](CC(C)C)NC)C(=O)N[C@@H](CC(N)=O)C(=O)N[C@H]5C(=O)N[C@H]3C(=O)N[C@H](C(=O)N[C@H](C(=O)O)c5cc(O)c(CNCP(=O)(O)O)c(O)c5-c5cc3ccc5O)[C@H](O)c3ccc(c(Cl)c3)O4)O[C@H](CO)[C@@H](O)[C@@H]2O)O[C@@H](C)[C@H]1O [5.74, telavancin] | 0.43 | 0.89 | 1.08 | 1.94 | – | – |
